Series [1] has as its system RAW 264.7 cells. The series is described as follows: Mitochondrial membrane potential with TMRM. Conditions: uninfected RAW 264.7 cells; D66 first two hours; CCCP 7 μM.
For series [2], the system named is staphylococcal strains. Description: MIC95 quoted for staphylococcal persister and biofilm experiments. In kind it is cell-based. Conditions: read-out: MIC95. The method, then:
A-D) Overnight cultures of the indicated strains were treated at time 0 with DMSO, ciprofloxacin [4 μg/mL], vancomycin [10 μg/mL], or the corresponding MIC95 concentration of D66 (1x MIC95=130 μM, 49 μg/mL). Cultures were plated for enumeration of CFU at time points indicated. Mean and SEM of three biological replicates. E) RAW 264.7 macrophage-like cells and HeLa cells were infected with S. aureus USA300, at MOIs of 0.5 and 2.5, respectively. Cells were treated two hours after infection with DMSO (gray circle on Y axis), or dilutions of D66 from 40 μM. After 8 hours of infection, cells were lysed and plated for enumeration of CFU. Mean and SEM of biological duplicates performed with technical triplicates each with six dilutions of D66. The IC50 value that was calculatable is indicated.
Biofilm formation was monitored after 18 hours in TSB with subinhibitory concentrations of DMSO, rifampin (1x MIC95=0.05 μg/mL), vancomycin (1x MIC95=1 μg/mL), or D66 (1x MIC95=130 μM). A-D) Crystal violet staining for accumulated biofilm mass measured at A595. Mean and […]

In series [3] the test system is S. Typhimurium. The series is described as follows: Propidium iodide membrane barrier assay. In kind it is cell-based. Conditions: LB with PMB [0.5 μg/mL]; D66 at 2x MIC95; SDS [0.005%] positive control. The method, then:
FIG. 3A-F. D66 rapidly perturbs the bacterial cytoplasmic membrane with minor disruption of barrier function. Mid-log phase S. Typhimurium cells grown in LB with 0.5 μg/mL PMB were used for all experiments. A) Cell membrane potential was monitored with the fluorescent dye DiSC3 (5). Cells were treated at time 0 with DMSO, JD1 [70 μM], or D66. Data were normalized to DMSO at time 0 and corrected for the quenching effect of D66 (FIG. 6A, B) B) Cell membrane permeability was monitored by PI fluorescence. Cells were treated at time 0 with DMSO, SDS [0.005%] or D66. Samples were processed at the time points shown. A one-way ANOVA with a Dunnet's multiple comparison test, * P<0.005. C-F) Growth curves and kill-curves of cells treated at time 0 with either DMSO or D66. Culture aliquots were monitored for OD600 (C, E) or plated for enumeration of CFU (D, F). Data are presented as fold change. Mean and SEM of three biological replicates with technical triplicates are shown in all panels.
Propidium iodide membrane barrier assays: Compound, DMSO, or SDS was added to mid-log phase cells to the desired concentration, and cultures were sampled at 0, 10, 15, 20, 30 and 45 minutes. Five minutes before harvesting, PI [10 μg/mL] (Life Technologies) was added. Cells were pelleted, washed twice, resuspended in PBS, and monitored (ex535/em617 nm) using a BioTek Synergy H1 plate reader.

These results are taken from patent US20250302846A1, “ANTIBIOTIC COMPOSITION AND METHODS OF USE THEREOF” (THE REGENTS OF THE UNIVERSITY OF COLORADO A BODY CORPORATE, priority 2022, published 2025).

Molecules are shown by their SMILES. Values after ≈ are worked out from the molar mass of the structure shown. Like-named read-outs stand apart in the source and are kept apart here.

For the molecule `N#CC(C#N)=NNc1cccc(Cl)c1` [CCCP, carbonyl cyanide m-chlorophenyl hydrazone, reference compound], the “TMRM fluorescence (mitochondrial membrane potential)” value in series [1] is “decreased TMRM fluorescence”.
As to `CN[C@H](CC(C)C)C(=O)N[C@H]1C(=O)N[C@@H](CC(N)=O)C(=O)N[C@H]2C(=O)N[C@H]3C(=O)N[C@H](C(=O)N[C@H](C(=O)O)c4cc(O)cc(O)c4-c4cc3ccc4O)[C@H](O)c3ccc(c(Cl)c3)Oc3cc2cc(c3O[C@@H]2O[C@H](CO)[C@@H](O)[C@H](O)[C@H]2O[C@H]2C[C@](C)(N)[C@H](O)[C@H](C)O2)Oc2ccc(cc2Cl)[C@H]1O` [vancomycin, reference compound], the MIC in series [2] was 1 µg/mL (≈ 0.69 µM).
Consider `CO[C@H]1/C=C/O[C@@]2(C)Oc3c(C)c(O)c4c(O)c(c(/C=N/N5CCN(C)CC5)c(O)c4c3C2=O)NC(=O)/C(C)=C\C=C\[C@H](C)[C@H](O)[C@@H](C)[C@@H](O)[C@@H](C)[C@H](OC(C)=O)[C@@H]1C` [rifampin, reference compound], for which the MIC in series [2] (staphylococcal strains) stood at 0.05 µg/mL (≈ 0.0608 µM).
Consider `CCCCCCCCCCCCOS(=O)(=O)[O-].[Na+]` [SDS, reference compound], for which the “time of treatment after which PI signal increased” value in series [3] is 10 min.
